Test results reported in ChEMBL document CHEMBL1131686, “Synthesis and biological activities of topoisomerase I inhibitors, 6-N-amino analogues of NB-506” (Bioorg Med Chem Lett, 1999).

Columns and labels:
[1] = target: Epidermal growth factor receptor (Homo sapiens, UniProt P00533); assay: In vitro activity against Epidermal growth factor receptor (using poly(Glu4Tyr1) as a substrate)
MKN-45 [2] = assay: Cytotoxicity against human stomach cancer cells (MKN-45) after intravenous administration (5 times/week for 2 weeks after tumor grew to 0.2 cme3 or larger); type: functional, cell-based; conditions: MKN-45, 336 h
MKN-45 [3] = assay: In vitro cytotoxicity (CTX) against human stomach cancer cells (MKN-45) using sulforhodamine B dye-staining method; type: functional, cell-based
Mus musculus = assay: Cytotoxicity against human stomach cancer cells (MKN-45) implanted subcutaneously into a side flank of nude mice; type: functional, Cancer cell lines
P388 [4] = assay: Effect on the formation of protein-DNA complex in P388 cells K+/SDS method; type: functional, Mus musculus
P388 [5] = assay: In vitro cytotoxicity (CTX) against murine leukemia cells (P388) using colorimetric tetrazolium-formazan method; type: functional, cell-based; conditions: Mus musculus
[6] = target: Protein kinase C alpha type (Homo sapiens, UniProt P17252); assay: In vitro activity evaluated against protein kinase C (using histone II-As as a substrate)
[7] = Lethal dose after intravenous administration (5 times/week for 2 weeks after tumor grew to 0.2 cme3 or larger) in mice; type: toxicity; conditions: mouse, in vivo, 336 h
DNA topoisomerase 1 = target: T1, DNA topoisomerase 1 (Homo sapiens, UniProt P11387); assay: In vitro activity against topoisomerase-1 mediated cleavage of supercoiled pBR322 plasmid DNA; type: functional
T1 sequence (P11387 whole entry): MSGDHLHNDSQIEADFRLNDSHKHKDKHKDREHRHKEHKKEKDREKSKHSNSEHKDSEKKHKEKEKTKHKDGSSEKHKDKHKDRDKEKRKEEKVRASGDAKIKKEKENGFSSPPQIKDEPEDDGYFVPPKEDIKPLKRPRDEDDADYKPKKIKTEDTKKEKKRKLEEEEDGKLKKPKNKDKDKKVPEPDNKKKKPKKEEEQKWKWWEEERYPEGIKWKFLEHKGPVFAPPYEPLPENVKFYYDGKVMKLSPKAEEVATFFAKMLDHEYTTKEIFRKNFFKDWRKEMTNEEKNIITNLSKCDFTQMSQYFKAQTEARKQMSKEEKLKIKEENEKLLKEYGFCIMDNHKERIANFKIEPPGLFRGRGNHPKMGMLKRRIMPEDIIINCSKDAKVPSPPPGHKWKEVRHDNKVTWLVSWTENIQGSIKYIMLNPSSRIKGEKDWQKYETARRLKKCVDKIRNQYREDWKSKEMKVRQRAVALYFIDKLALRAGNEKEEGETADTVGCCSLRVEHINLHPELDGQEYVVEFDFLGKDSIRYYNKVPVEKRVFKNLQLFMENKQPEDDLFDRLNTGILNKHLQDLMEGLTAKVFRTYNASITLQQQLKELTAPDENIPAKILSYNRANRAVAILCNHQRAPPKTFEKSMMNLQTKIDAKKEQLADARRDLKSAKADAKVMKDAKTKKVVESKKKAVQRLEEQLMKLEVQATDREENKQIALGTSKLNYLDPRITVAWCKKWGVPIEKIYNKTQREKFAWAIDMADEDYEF

[8] = Ratio of LD10 to that of GID75 was determined; expressed as safety margin; type: functional
DNA topoisomerase II = DNA topoisomerase II (Homo sapiens, UniProt P11388+Q02880); assay: In vitro activity against topoisomerase-2 mediated cleavage of supercoiled pBR322 plasmid DNA; type: functional

Sequence of Epidermal growth factor receptor (P00533 whole entry): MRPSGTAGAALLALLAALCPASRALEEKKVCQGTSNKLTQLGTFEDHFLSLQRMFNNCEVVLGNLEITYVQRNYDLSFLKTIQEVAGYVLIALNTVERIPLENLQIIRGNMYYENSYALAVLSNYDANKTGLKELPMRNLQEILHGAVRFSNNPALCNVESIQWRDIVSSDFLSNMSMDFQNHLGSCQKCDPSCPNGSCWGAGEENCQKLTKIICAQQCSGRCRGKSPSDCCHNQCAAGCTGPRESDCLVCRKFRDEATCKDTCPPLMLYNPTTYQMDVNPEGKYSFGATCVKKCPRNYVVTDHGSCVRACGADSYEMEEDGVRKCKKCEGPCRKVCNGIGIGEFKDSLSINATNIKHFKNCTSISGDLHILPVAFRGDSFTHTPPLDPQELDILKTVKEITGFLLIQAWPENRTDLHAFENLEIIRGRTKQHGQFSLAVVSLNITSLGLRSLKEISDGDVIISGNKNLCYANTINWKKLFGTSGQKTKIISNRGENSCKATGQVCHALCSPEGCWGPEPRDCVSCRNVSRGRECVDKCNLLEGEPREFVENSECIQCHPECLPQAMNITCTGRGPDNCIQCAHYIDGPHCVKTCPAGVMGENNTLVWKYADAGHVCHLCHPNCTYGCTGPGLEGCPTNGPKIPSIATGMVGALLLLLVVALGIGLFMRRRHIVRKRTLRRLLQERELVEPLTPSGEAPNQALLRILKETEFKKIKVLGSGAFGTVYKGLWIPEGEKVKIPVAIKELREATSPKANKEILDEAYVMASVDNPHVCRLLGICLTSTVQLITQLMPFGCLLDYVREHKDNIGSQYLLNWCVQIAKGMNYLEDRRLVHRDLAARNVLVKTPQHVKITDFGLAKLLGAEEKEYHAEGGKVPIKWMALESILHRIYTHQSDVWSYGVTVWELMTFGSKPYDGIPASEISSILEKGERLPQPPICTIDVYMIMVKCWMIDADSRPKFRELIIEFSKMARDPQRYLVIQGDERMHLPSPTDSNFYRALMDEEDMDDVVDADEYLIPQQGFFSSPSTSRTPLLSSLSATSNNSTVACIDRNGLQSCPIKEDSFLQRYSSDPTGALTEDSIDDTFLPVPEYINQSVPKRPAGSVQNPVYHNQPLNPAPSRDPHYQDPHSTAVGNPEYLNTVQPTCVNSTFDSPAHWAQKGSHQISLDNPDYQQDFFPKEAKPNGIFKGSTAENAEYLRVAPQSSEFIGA

Compound	IC50 [1]	IC50 (MKN-45 [2])	IC50 (MKN-45 [3])	GID75 (Mus musculus)	EC200 (P388 [4])	IC50 (P388 [5])	IC50 [6]	LD10 [7]	EC50 (DNA topoisomerase 1)	Activity [8]	EC50 (DNA topoisomerase II)
O=C1c2c(c3c4cccc(O)c4n(C4OC(CO)C(O)C(O)C4O)c3c3[nH]c4c(O)cccc4c23)C(=O)N1NCC(O)CO (configuration not stated)	180000 nM	79 nM	79 nM	290 mg/me2	0.7 µM	29 nM	> 200000 nM	330 mg/me2	1000 nM	1.1 Ratio	
Cc1ccc(S(=O)(=O)NN2C(=O)c3c(c4c5cccc(O)c5n(C5OC(CO)C(O)C(O)C5O)c4c4[nH]c5c(O)cccc5c34)C2=O)cc1 (configuration not stated)	> 200000 nM				>10 µM		12000 nM		270 nM		> 50000 nM
O=C(NN1C(=O)c2c(c3c4cccc(O)c4n(C4OC(CO)C(O)C(O)C4O)c3c3[nH]c4c(O)cccc4c23)C1=O)c1ccccn1 (configuration not stated)	> 200000 nM		2500 nM		>10 µM	470 nM	41000 nM		90 nM		> 50000 nM
N#CCC(=O)NN1C(=O)c2c(c3c4cccc(O)c4n(C4OC(CO)C(O)C(O)C4O)c3c3[nH]c4c(O)cccc4c23)C1=O (configuration not stated)	> 200000 nM		1900 nM		20 µM	490 nM	65000 nM		550 nM		> 50000 nM
CCCNN1C(=O)c2c(c3c4cccc(O)c4n(C4OC(CO)C(O)C(O)C4O)c3c3[nH]c4c(O)cccc4c23)C1=O (configuration not stated)	59000 nM		210 nM		6.3 µM	55 nM	65000 nM		1200 nM		> 50000 nM
O=C(NN1C(=O)c2c(c3c4cccc(O)c4n(C4OC(CO)C(O)C(O)C4O)c3c3[nH]c4c(O)cccc4c23)C1=O)c1ccccc1 (configuration not stated)	> 200000 nM		48 nM		10 µM	12 nM	35000 nM		52 nM		
N#CCCNN1C(=O)c2c(c3c4cccc(O)c4n(C4OC(CO)C(O)C(O)C4O)c3c3[nH]c4c(O)cccc4c23)C1=O (configuration not stated)	> 200000 nM	20 nM	20 nM	200 mg/me2	0.9 µM	6 nM	> 200000 nM	640 mg/me2	70 nM	3.2 Ratio	> 50000 nM
CCC(=O)NN1C(=O)c2c(c3c4cccc(O)c4n(C4OC(CO)C(O)C(O)C4O)c3c3[nH]c4c(O)cccc4c23)C1=O (configuration not stated)	> 200000 nM		190 nM		6 µM	45 nM	36000 nM		480 nM		> 50000 nM
O=C(CO)NN1C(=O)c2c(c3c4cccc(O)c4n(C4OC(CO)C(O)C(O)C4O)c3c3[nH]c4c(O)cccc4c23)C1=O (configuration not stated)	> 200000 nM	660 nM	660 nM	1200 mg/me2	5 µM	240 nM	> 200000 nM	> 1500 mg/me2	2800 nM	> 1.3 Ratio	> 50000 nM
CCNN1C(=O)c2c(c3c4cccc(O)c4n(C4OC(CO)C(O)C(O)C4O)c3c3[nH]c4c(O)cccc4c23)C1=O (configuration not stated)	> 200000 nM	59 nM	59 nM	>1500 mg/me2	1.2 µM	18 nM	> 200000 nM	> 1500 mg/me2	3500 nM		> 50000 nM
O=C(O)CNN1C(=O)c2c(c3c4cccc(O)c4n(C4OC(CO)C(O)C(O)C4O)c3c3[nH]c4c(O)cccc4c23)C1=O (configuration not stated)	> 200000 nM		2900 nM		>10 µM	800 nM	110000 nM		9500 nM		> 50000 nM
O=C(O)c1ccc(NN2C(=O)c3c(c4c5cccc(O)c5n(C5OC(CO)C(O)C(O)C5O)c4c4[nH]c5c(O)cccc5c34)C2=O)cc1 (configuration not stated)	90000 nM		> 10000 nM		>50 µM	6500 nM	23000 nM		160 nM		> 50000 nM
CS(=O)(=O)NN1C(=O)c2c(c3c4cccc(O)c4n(C4OC(CO)C(O)C(O)C4O)c3c3[nH]c4c(O)cccc4c23)C1=O (configuration not stated)	> 200000 nM		270 nM		>10 µM	60 nM	> 200000 nM		580 nM		> 50000 nM
